How the values were obtained:
ACOX1 = ACOX1 mRNA expression by real-time quantitative PCR in HepG2; format: cell-based, human; conditions: 1 μM, 6 hours, HepG2 (FIG. 5D)
Text: (§1) Peroxisome proliferation factor activated receptor (PPAR) is an important nuclear receptor that regulates glycolipid metabolism, including three subtypes: α, β/δ and γ. Peroxisome proliferator-activated receptor γ coactivator 1α (PGC-1α) is its auxiliary transcriptional activator. Acyl-CoA oxidase 1 (ACOX1) is the first rate-limiting enzyme for fatty acid β oxidation. Fatty acid binding protein 1 (FABP1) is highly expressed in liver, and can bind fatty acid, heme and other molecules to reduce their toxicity and damage. Up-regulating the expression level of these genes helps to improve the body's metabolism, and their agonists are an important class of anti-metabolic drugs. After the compound of the present application (1 μM) and the control drug gemfibrozil (1 μM) were incubated with human liver cancer cells HepG2 for 6 hours, real-time fluorescent quantitative PCR method was used to determine the relative expression of mRNA of related genes in the cells.
(§2) The company which synthesized the primers was Suzhou Hongxun Biotechnology Co., Ltd. Tranzol reagent (Tranzol total RNA extraction reagent, TransGen Biotech) was used to extract total RNA from tissues. 5× All-In-One RT MasterMix reverse transcription kit (Abcam, USA) and real-time quantitative PCR Master Mix (Aidlab Biotechnologies Co., Ltd) were used. Bio-Rad CFX Connect™ Real-Time PCR Detection System for qPCR was used, and 2^−ΔΔCT method was used for data analysis. The expression level of mRNA in the normal control group was set to 1, and the relative expression level of mRNA in the administration group was calculated, so as to confirm whether the active compound affected the PPAR pathway, thereby further regulating lipid metabolism.

[1] = test system: diabetes mellitus+NASH model mice; test: Diabetes mellitus + non-alcoholic steatohepatitis (NASH) model; format: in vivo, mouse; conditions: for AHDL (high density lipoprotein) / ALDL (low density lipoprotein) / ALT / AST / BUN / CHOL (total cholesterol) / CK / CREA / TGL (triglycerides) / total cholesterol content in blood (in words) / activity of lowering triglycerides (in words): 50 mg/kg intragastric once a day for 28 days; for blood glucose level: 50 mg/kg intragastric once a day for 28 days (FIG. 9); for body fat content (MRI): 50 mg/kg intragastric once a day for 28 days (FIG. 10); for fat content in liver (Oil red O and H.E. staining): 50 mg/kg intragastric once a day for 28 days (FIGS. 12A-12B); for blood glucose level 14 days after the administration: 50 mg/kg intragastric once a day, day 14; for weight ratio of epididymal white fat: 50 mg/kg intragastric once a day for 28 days (FIG. 11)
Experimental: Animal model: Each db/db mouse was injected subcutaneously with 40% CCl4 solution (Beijing Tongguang Fine Chemical Co., Ltd.) at a dose of 0.72 mg/100 g for 4 consecutive weeks to obtain a diabetes mellitus+NASH model. In the experiment, 35 of the above model mice were used, and animals with blood glucose of about 7 to 13 mmol/L were selected. According to their blood glucose levels, they were randomly divided into a blank control group, a model group, a BJMU group (gemfibrozil), a BJMU-1 group, a BJMU-2 Group and a BJMU-3 group, 7 animals in each group (the model group and each administration group were modeled according to the animal modeling method). Intragastric administration was adopted with an administration volume of 10 ml/kg. The blank control group and the model group were administrated with 1% Tween 80-saline; the BJMU group was administrated with a dose of 50 mg/kg, the BJMU-1 group was administrated with a dose of 50 mg/kg, the BJMU-2 group was administrated with a dose of 50 mg/kg, and the BJMU-3 group was administrated with a dose of 50 mg/kg. The administration was performed once a day for 28 consecutive days. From the day of oral administration, the physiological changes of the animals were observed every day. Blood glucose was measured every week, and blood glucose difference (Δ) was calculated by the following formula: blood glucose difference (Δ)=the blood glucose of the day—the initial blood glucose (the initial blood glucose difference was zero). After the administration, the animals were sacrificed, and the internal organs and epididymal fat were taken out for experiments. White epididymal fat was taken from each group of mice and weighed. According to the corresponding body weight, the weight ratio of white fat was calculated. Before the mice were sacrificed, 3 mice in each group were randomly selected and subjected to magnetic resonance imaging (MRI) (EchoMRI-700 body fat tester) so as to measure body fat content. For mice in each experimental group, blood was collected and serum was separated, and liver was taken for wet-weight measurement after necropsy; liver tissue was taken and fixed for pathological examination, H.E. staining and oil red O staining (Wuhan Zishan Biotechnology Co., Ltd.) were performed, and mouse liver lesions were observed under light microscope; routine examination of blood was performed by Animal Laboratory Department, Health Science Center of Peking University to measure the following indexes: white blood cell count (WBC), red blood cell count (RBC), lymphocyte count (LY), platelet (PLT) and so on; biochemical laboratory examination of blood was performed by Laboratory Medicine, Third Hospital, Peking University to measure the following indexes: triglycerides (TG), total cholesterol (T-CHO), high-density lipoprotein cholesterol (HDL-C), low-density lipoprotein cholesterol (LDL-C) and so on.

CPT1α = CPT1α protein level by Western blotting in HepG2; format: cell-based, human; conditions: 1 μM, 24 hours, HepG2, Western blotting (FIG. 6A)
Text: Carnitine palmitoyltransferase (CPT1α) is a rate-limiting enzyme of fatty acid oxidation. When the body or tissues are lacking in energy, CPT1α catalyzes the entry of fatty acids into mitochondria for […], and at the same time, CPT1α is also involved in the regulation of fatty acid-induced insulin resistance and inflammation. Protein kinase B/glycogen synthase kinase 3β (AKT/GSK3β) signaling pathway and insulin receptor substrate 1 (IRS-1) are key signaling pathways that regulate glucose metabolism in response to insulin signal. Therefore, by determining the effects of compounds on the CPT1α protein level and the AKT, GSK3β and IRS-1 protein phosphorylation levels, it is possible to evaluate the regulatory effects of the compounds on glycolipid metabolism.
After human liver cancer cells HepG2 were incubated with the compound of the present application or the control drug at 1 μM for 24 hours, the CPT1α protein level and the AKT, GSK3β and IRS-1 phosphorylated protein levels in the cells were determined by Western blotting; after gray-scale scanning by using Image J15.0.1, normalization was performed by using β-tubulin protein level as internal control, and the quantitative analysis results were shown in FIG. 6.

PPARγ = PPARγ mRNA expression by real-time quantitative PCR in HepG2; format: cell-based, human; conditions: 1 μM, 6 hours, HepG2 (FIG. 5B)
Text: as §1, §2

Row | Structure (SMILES) | ACOX1 mRNA expression (ACOX1) | AHDL (high density lipoprotein) [1] | ALDL (low density lipoprotein) [1] | ALT [1] | AST [1] | BUN [1] | CHOL (total cholesterol) [1] | CK [1] | CREA [1] | TGL (triglycerides) [1] | total cholesterol content in blood (in words) [1] | blood glucose level [1] | body fat content (MRI) [1] | fat content in liver (Oil red O and H.E. staining) [1] | CPT1α protein level (CPT1α) | activity of lowering triglycerides (in words) [1] | blood glucose level 14 days after the administration [1] | PPARγ mRNA expression (PPARγ) | weight ratio of epididymal white fat [1]
1 | Cc1ccc(C)c(OCCCC(C)(C)C(=O)O)c1 [gemfibrozil, Gemfibrozil, reference compound] | could not activate ACOX1 expression | 2.68 ± 0.31 mmol/L | 0.7 ± 0.16 mmol/L | 134.14 ± 38.71 U/L | 235.14 ± 41.06 U/L | 11.96 ± 2.26 mmol/L | 5.37 ± 0.88 mmol/L | 1222.14 ± 392.96 U/L | 22.29 ± 3.45 µmol/L | 1.86 ± 0.66 mmol/L | did not show an activity of lowering total cholesterol in blood | did not exhibit significant hypoglycemic activity | did not show an activity of reducing body fat | did not exhibit the aforementioned activity |  |  |  |  | 
2 | Cc1cc(OCCCC(C)(C)C(=O)O)c(C)cc1Cl [BJMU-1, 5-(4-chloro-2,5-dimethylphenoxy)-2,2-dimethylpentanoic acid] | significantly induced ACOX1 mRNA expression | 2.34 ± 0.24 mmol/L | 0.49 ± 0.06 mmol/L | 114.86 ± 51.2 U/L | 216.43 ± 60.6 U/L | 9.89 ± 1.31 mmol/L | 4.85 ± 0.7 mmol/L | 1297.71 ± 814.48 U/L | 19 ± 1.63 µmol/L | 1.77 ± 0.65 mmol/L |  | could significantly reduce the blood glucose level | could significantly reduce the body fat content | could significantly reduce the fat content in liver | significantly increased CPT1α protein level | had better activity of lowering triglycerides than gemfibrozil | almost returned to the normal level |  | 
3 | Cc1cc(OCCCC(C)(C)C(=O)O)c(C)cc1F [BJMU-3, 5-(4-fluoro-2,5-dimethylphenoxy)-2,2-dimethylpentanoic acid] | significantly induced ACOX1 mRNA expression | 2.27 ± 0.84 mmol/L | 0.52 ± 0.14 mmol/L | 125.14 ± 51.99 U/L | 257 ± 83 U/L | 9.29 ± 3.44 mmol/L | 4.42 ± 1.77 mmol/L | 1674.71 ± 864.05 U/L | 21.33 ± 10.52 µmol/L | 1.86 ± 0.99 mmol/L |  | could significantly reduce the blood glucose level | could significantly reduce the body fat content | could significantly reduce the fat content in liver |  | had better activity of lowering triglycerides than gemfibrozil | almost returned to the normal level | significantly induced PPARγ mRNA expression | could significantly reduce the weight ratio of mouse epididymal fat
4 | Cc1cc(OCCCC(C)(C)C(=O)O)c(C)cc1Br [BJMU-2, 5-(4-bromo-2,5-dimethylphenoxy)-2,2-dimethylpentanoic acid] | significantly induced ACOX1 mRNA expression | 2.15 ± 0.29 mmol/L | 0.48 ± 0.05 mmol/L | 115.57 ± 39.12 U/L | 233.67 ± 47.75 U/L | 11.95 ± 1.81 mmol/L | 3.78 ± 0.45 mmol/L | 1406.33 ± 458.77 U/L | 22.5 ± 7.12 µmol/L | 1.73 ± 0.41 mmol/L | could reduce total cholesterol content in blood | could significantly reduce the blood glucose level | could significantly reduce the body fat content | could significantly reduce the fat content in liver | significantly increased CPT1α protein level | had better activity of lowering triglycerides than gemfibrozil | almost returned to the normal level | significantly induced PPARγ mRNA expression | could significantly reduce the weight ratio of mouse epididymal fat

From US12365643B2, “Phenoxy carboxylic acid compounds and medical uses thereof” (QINGDAO RISING BIOTECHNOLOGY CO., LTD, priority 2018, dated 2025)
